Laboratory results reported in ChEMBL document CHEMBL1150613, “New flavonol oligoglycosides and polyacylated sucroses with inhibitory effects on aldose reductase and platelet aggregation from the flowers of Prunus mume” (J Nat Prod, 2002).

What was measured:
[1] = target: Aldo-keto reductase family 1 member B1 (Rattus norvegicus) (UniProt P07943); experiment: Inhibition of aldose reductase in rat lens homogenates at 30 uM by fluorophotometry
[2] = target: Aldo-keto reductase family 1 member B1 (Rattus norvegicus, UniProt P07943); experiment: Inhibition of aldose reductase in rat lens homogenates by fluorophotometer
[3] = tested on: Platelet; experiment: Inhibition of thrombin-induced platelet aggregation in washed rabbit platelets at 0.1 mM treated 2 mins before thrombin challenge by aggregometer; assay type: functional; details: Oryctolagus cuniculus
[4] = tested on: Platelet; experiment: Inhibition of thrombin-induced platelet aggregation in washed rabbit platelets at 1.0 mM treated 2 mins before thrombin challenge by aggregometer; assay type: functional; details: Oryctolagus cuniculus
[5] = tested on: Platelet; experiment: Inhibition of thrombin-induced platelet aggregation in washed rabbit platelets at 0.5 mM treated 2 mins before thrombin challenge by aggregometer; assay type: functional; details: Oryctolagus cuniculus

SMILES | IC50 [2] [µM] | also measured
C[C@@H]1O[C@@H](OC[C@H]2O[C@@H](Oc3c(-c4ccc(O)c(O)c4)oc4cc(O)cc(O)c4c3=O)[C@H](O[C@@H]3O[C@@H](C)[C@H](O)[C@@H](O)[C@H]3O)[C@@H](O)[C@H]2O)[C@H](O)[C@H](O)[C@H]1O | > 30 | inhibition [1]: 40%
C[C@@H]1O[C@@H](OC[C@H]2O[C@@H](Oc3c(-c4ccc(O)c(O)c4)oc4cc(O)cc(O)c4c3=O)[C@H](O)[C@@H](O)[C@@H]2O)[C@H](O)[C@H](O)[C@H]1O [RUTIN] | 13 | 
COc1cc(-c2oc3cc(O)cc(O)c3c(=O)c2O[C@@H]2O[C@H](CO[C@@H]3O[C@@H](C)[C@H](O)[C@@H](O)[C@H]3O)[C@@H](O)[C@H](O)[C@H]2OC(C)=O)ccc1O | 9.8 | 
C[C@@H]1O[C@@H](O[C@H]2[C@H](Oc3c(-c4ccc(O)c(O)c4)oc4cc(O)cc(O)c4c3=O)O[C@H](CO)[C@H](O)[C@@H]2O)[C@H](O)[C@H](O)[C@H]1O | 18 | 
CC(=O)Oc1ccccc1C(=O)O [ASPIRIN] |  | inhibition at 100 µM [3]: 15.8%; inhibition at 1000 µM [4]: 53.5%; inhibition at 500 µM [5]: 39.4%
COc1cc(-c2oc3cc(O)cc(O)c3c(=O)c2O[C@@H]2O[C@@H](C)[C@H](O)[C@@H](O)[C@H]2O)ccc1O | 19 | 
CC(=O)O[C@H]1[C@H](Oc2c(-c3ccc(O)c(O)c3)oc3cc(O)cc(O)c3c2=O)O[C@H](CO[C@@H]2O[C@@H](C)[C@H](O)[C@@H](O)[C@H]2O)[C@@H](O)[C@@H]1O | 18 | 
